Experiments:
[1] = Antibiotic susceptibility (MIC), broth microdilution / agar dilution, CLSI M07; conditions: for Minimum Inhibitory Concentration (MIC): VTT-E-193585, 48 h ± 1 h, aerobic, +35±2° C., cation-adjusted Mueller Hinton Broth, fosfomycin by agar dilution; for MIC values for VTT-E-193585 compared to E. coli ATCC 25922: comparison in words
[2] = Antibiotic susceptibility (MIC), quality control strain; conditions: E. coli ATCC 25922, 18 h ± 2 h, aerobic, +35±2° C.

| Molecule | Minimum Inhibitory Concentration (MIC) [1] [mg/L] | MIC values for VTT-E-193585 compared to E. coli ATCC 25922 [1] | Minimum Inhibitory Concentration (MIC) [2] [mg/L] |
| --- | --- | --- | --- |
| CC1(C)S[C@@H]2[C@H](NC(=O)[C@H](N)c3ccccc3)C(=O)N2[C@H]1C(=O)O [Ampicillin] | 16 | higher | 8 |
| C[C@@H]1O[C@@H]1P(=O)(O)O [Fosfomycin] | 32 | higher | 0.5 |
| [H]/N=C(/N)N[C@H]1[C@H](O)[C@@H](O)[C@H](O[C@@H]2O[C@@H](C)[C@](O)(C=O)[C@H]2O[C@@H]2O[C@@H](CO)[C@H](O)[C@@H](O)[C@@H]2NC)[C@@H](N/C(N)=N\[H])[C@@H]1O [Streptomycin] | 0.5 | lower or comparable | 4 |
| Colistin | 4 | higher | 2 |
| Gentamicin | 0.5 | lower or comparable | 0.5 |

From patent US20240254435A1, “VARIANT BACTERIAL STRAINS AND PROCESSES FOR PROTEIN OR BIOMASS PRODUCTION” (Solar Foods Oy, priority 2021, published 2024)
